Data reported in ChEMBL document CHEMBL1201862, “PubChem BioAssay data set” (2004).
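Interpolation was linear, between the two tested concentrations surrounding the appropriate level; five concentrations were tested over 48 hours in 96-well plates. At the GI50, growth is halved.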 Calls of active or inactive are those of the source. Cut-off read from the data, not from the text of the source: active = GI50 up to about 1.1 µM and inactive = higher.

Assays:
Assay in all cases: NCI-60 cell line screen, 48 h
786-0 = tested on: 786-0
A498 = tested on: A498
A549 = tested on: A549
ACHN = tested on: ACHN
CAKI-1 = tested on: CAKI-1
CCRF-CEM = tested on: CCRF-CEM
COLO 205 = tested on: COLO 205
DMS-114 = tested on: DMS-114
DMS-273 = tested on: DMS-273
EKVX = tested on: EKVX
HCC 2998 = tested on: HCC 2998
HCT-116 = tested on: HCT-116
HCT-15 = tested on: HCT-15
HL-60 = tested on: HL-60
HOP-18 = tested on: HOP-18
HOP-62 = tested on: HOP-62
HOP-92 = tested on: HOP-92
HT-29 = tested on: HT-29
IGROV-1 = tested on: IGROV-1
K562 = tested on: K562
KM-20L2 = tested on: KM-20L2
KM12 = tested on: KM12
LOX IMVI = tested on: LOX IMVI
LXFL 529 = tested on: LXFL 529
M14 = tested on: M14
M19-MEL = tested on: M19-MEL
MOLT-4 = tested on: MOLT-4
Malme-3M = tested on: Malme-3M
NCI-H226 = tested on: NCI-H226
NCI-H23 = tested on: NCI-H23
NCI-H460 = tested on: NCI-H460
NCI-H522 = tested on: NCI-H522
OVCAR-3 = tested on: OVCAR-3
OVCAR-4 = tested on: OVCAR-4
OVCAR-5 = tested on: OVCAR-5
OVCAR-8 = tested on: OVCAR-8
RPMI-8226 = tested on: RPMI-8226
RXF 393 = tested on: RXF 393
RXF 631 = tested on: RXF 631
SF-268 = tested on: SF-268
SF-295 = tested on: SF-295
SF-539 = tested on: SF-539
SK-MEL-28 = tested on: SK-MEL-28
SK-MEL-2 = tested on: SK-MEL-2
SK-MEL-5 = tested on: SK-MEL-5
SK-OV-3 = tested on: SK-OV-3
SN12C = tested on: SN12C
SNB-19 = tested on: SNB-19
SNB-75 = tested on: SNB-75
SNB-78 = tested on: SNB-78
SR = tested on: SR
SW-620 = tested on: SW-620
TK-10 = tested on: TK-10
U-251 = tested on: U-251
UACC-257 = tested on: UACC-257
UACC-62 = tested on: UACC-62
UO-31 = tested on: UO-31
DLD-1 = tested on: DLD-1

CCOC(=O)c1c(/C=N\Nc2ccccc2)nc2ccccc2c1-c1ccccc1
GI50 (786-0): 40.6 µM (inactive)
GI50 (A498): 60.4 µM (inactive)
GI50 (A549): 50.9 µM (inactive)
GI50 (ACHN): 32.7 µM (inactive)
GI50 (CAKI-1): 68.9 µM (inactive)
GI50 (CCRF-CEM): 19.2 µM (inactive)
GI50 (COLO 205): 24 µM (inactive)
GI50 (DMS-114): 41.6 µM (inactive)
GI50 (DMS-273): 25 µM (inactive)
GI50 (EKVX): 61.9 µM (inactive)
GI50 (HCC 2998): 21.8 µM (inactive)
GI50 (HCT-116): 42 µM (inactive)
GI50 (HCT-15): 13.6 µM
GI50 (HL-60): 15 µM (inactive)
GI50 (HOP-18): 31 µM (inactive)
GI50 (HOP-62): 39 µM (inactive)
GI50 (HOP-92): 45.4 µM (inactive)
GI50 (HT-29): 37.6 µM (inactive)
GI50 (IGROV-1): 67.1 µM (inactive)
GI50 (K562): 29.5 µM (inactive)
GI50 (KM-20L2): 38.5 µM (inactive)
GI50 (KM12): 43.9 µM (inactive)
GI50 (LOX IMVI): 35.4 µM (inactive)
GI50 (LXFL 529): 27.2 µM (inactive)
GI50 (M14): 36.7 µM (inactive)
GI50 (M19-MEL): 26.8 µM (inactive)
GI50 (MOLT-4): 20.7 µM (inactive)
GI50 (Malme-3M): 35.1 µM (inactive)
GI50 (NCI-H226): 45.7 µM (inactive)
GI50 (NCI-H23): 39.7 µM (inactive)
GI50 (NCI-H460): 37.8 µM (inactive)
GI50 (NCI-H522): 24.9 µM (inactive)
GI50 (OVCAR-3): 31.7 µM (inactive)
GI50 (OVCAR-4): 29.9 µM (inactive)
GI50 (OVCAR-5): > 100 µM (inactive)
GI50 (OVCAR-8): 32.1 µM (inactive)
GI50 (RPMI-8226): 20.1 µM (inactive)
GI50 (RXF 393): 65.8 µM (inactive)
GI50 (RXF 631): 41.2 µM (inactive)
GI50 (SF-268): 56.5 µM (inactive)
GI50 (SF-295): 61.5 µM (inactive)
GI50 (SF-539): 68.5 µM (inactive)
GI50 (SK-MEL-28): 70.8 µM (inactive)
GI50 (SK-MEL-2): 40.8 µM (inactive)
GI50 (SK-MEL-5): 31.2 µM (inactive)
GI50 (SK-OV-3): > 100 µM (inactive)
GI50 (SN12C): 38.1 µM (inactive)
GI50 (SNB-19): 79.1 µM (inactive)
GI50 (SNB-75): 46.5 µM (inactive)
GI50 (SNB-78): 51.1 µM (inactive)
GI50 (SR): 19.2 µM (inactive)
GI50 (SW-620): 38.1 µM (inactive)
GI50 (TK-10): > 100 µM (inactive)
GI50 (U-251): 38.2 µM (inactive)
GI50 (UACC-257): 70.3 µM (inactive)
GI50 (UACC-62): 25 µM (inactive)
GI50 (UO-31): 34.4 µM (inactive)

Cc1ccc([N+](=O)[O-])cc1NC(=O)/C(CC(=O)c1sc(C(N)=S)nc1C)=N\N
GI50 (786-0): 40.6 µM (inactive)
GI50 (A498): > 100 µM (inactive)
GI50 (A549): 46.2 µM (inactive)
GI50 (ACHN): 96.2 µM (inactive)
GI50 (CAKI-1): > 100 µM (inactive)
GI50 (CCRF-CEM): 26.9 µM (inactive)
GI50 (DLD-1): > 100 µM (inactive)
GI50 (DMS-114): 30.3 µM (inactive)
GI50 (DMS-273): 29.7 µM (inactive)
GI50 (EKVX): 65.3 µM (inactive)
GI50 (HCC 2998): > 100 µM (inactive)
GI50 (HCT-116): 71 µM (inactive)
GI50 (HCT-15): > 100 µM
GI50 (HL-60): 43.9 µM (inactive)
GI50 (HOP-18): 71.3 µM (inactive)
GI50 (HOP-62): > 100 µM (inactive)
GI50 (HOP-92): 62.8 µM (inactive)
GI50 (HT-29): 72.3 µM (inactive)
GI50 (IGROV-1): 30.6 µM (inactive)
GI50 (K562): 41.4 µM (inactive)
GI50 (KM-20L2): > 100 µM (inactive)
GI50 (KM12): 54.1 µM (inactive)
GI50 (LOX IMVI): > 100 µM (inactive)
GI50 (LXFL 529): 41.7 µM (inactive)
GI50 (M14): > 100 µM (inactive)
GI50 (M19-MEL): 71.8 µM (inactive)
GI50 (MOLT-4): 68.5 µM (inactive)
GI50 (Malme-3M): > 100 µM (inactive)
GI50 (NCI-H23): 31.7 µM (inactive)
GI50 (NCI-H460): 35.1 µM (inactive)
GI50 (NCI-H522): 20.9 µM (inactive)
GI50 (OVCAR-3): 26.9 µM (inactive)
GI50 (OVCAR-4): 31.6 µM (inactive)
GI50 (OVCAR-5): > 100 µM (inactive)
GI50 (OVCAR-8): > 100 µM (inactive)
GI50 (RPMI-8226): > 100 µM (inactive)
GI50 (RXF 393): > 100 µM (inactive)
GI50 (RXF 631): 31.5 µM (inactive)
GI50 (SF-268): > 100 µM (inactive)
GI50 (SF-295): 75.7 µM (inactive)
GI50 (SF-539): > 100 µM (inactive)
GI50 (SK-MEL-28): > 100 µM (inactive)
GI50 (SK-MEL-2): > 100 µM (inactive)
GI50 (SK-MEL-5): 90.6 µM (inactive)
GI50 (SK-OV-3): 44.1 µM (inactive)
GI50 (SNB-19): > 100 µM (inactive)
GI50 (SNB-75): > 100 µM (inactive)
GI50 (SNB-78): > 100 µM (inactive)
GI50 (SR): 88.9 µM (inactive)
GI50 (SW-620): > 100 µM (inactive)
GI50 (TK-10): > 100 µM (inactive)
GI50 (U-251): 32.1 µM (inactive)
GI50 (UACC-257): > 100 µM (inactive)
GI50 (UACC-62): > 100 µM (inactive)
GI50 (UO-31): 48.1 µM (inactive)

O=C(/C=C/c1ccc(Cl)cc1)c1ccncc1
GI50 (786-0): 76.2 µM (inactive)
GI50 (A498): 27 µM (inactive)
GI50 (A549): 58.5 µM (inactive)
GI50 (ACHN): 35.9 µM (inactive)
GI50 (CAKI-1): 30.8 µM (inactive)
GI50 (CCRF-CEM): 43.7 µM (inactive)
GI50 (COLO 205): > 100 µM (inactive)
GI50 (DLD-1): 41 µM (inactive)
GI50 (DMS-114): 48.1 µM (inactive)
GI50 (DMS-273): 69.3 µM (inactive)
GI50 (EKVX): 64.4 µM (inactive)
GI50 (HCC 2998): 40.4 µM (inactive)
GI50 (HCT-116): 62.2 µM (inactive)
GI50 (HCT-15): 44.5 µM
GI50 (HL-60): 32 µM (inactive)
GI50 (HOP-18): > 100 µM (inactive)
GI50 (HOP-62): 98.9 µM (inactive)
GI50 (HOP-92): > 100 µM (inactive)
GI50 (HT-29): 22.3 µM (inactive)
GI50 (IGROV-1): 48.2 µM (inactive)
GI50 (K562): 52.2 µM (inactive)
GI50 (KM-20L2): 35.9 µM (inactive)
GI50 (KM12): 26 µM (inactive)
GI50 (LOX IMVI): 27.1 µM (inactive)
GI50 (LXFL 529): 60.5 µM (inactive)
GI50 (M14): 36.1 µM (inactive)
GI50 (M19-MEL): 26.9 µM (inactive)
GI50 (MOLT-4): 27 µM (inactive)
GI50 (Malme-3M): > 100 µM (inactive)
GI50 (NCI-H226): > 100 µM (inactive)
GI50 (NCI-H23): > 100 µM (inactive)
GI50 (NCI-H460): 59.7 µM (inactive)
GI50 (NCI-H522): 64.9 µM (inactive)
GI50 (OVCAR-3): 40.8 µM (inactive)
GI50 (OVCAR-4): 22.5 µM (inactive)
GI50 (OVCAR-5): > 100 µM (inactive)
GI50 (OVCAR-8): > 100 µM (inactive)
GI50 (RPMI-8226): 89.3 µM (inactive)
GI50 (RXF 393): 21.4 µM (inactive)
GI50 (RXF 631): 31.8 µM (inactive)
GI50 (SF-268): 85.9 µM (inactive)
GI50 (SF-295): 47.1 µM (inactive)
GI50 (SF-539): 25.9 µM (inactive)
GI50 (SK-MEL-28): 52.6 µM (inactive)
GI50 (SK-MEL-2): > 100 µM (inactive)
GI50 (SK-MEL-5): 53.2 µM (inactive)
GI50 (SK-OV-3): > 100 µM (inactive)
GI50 (SN12C): 51.4 µM (inactive)
GI50 (SNB-19): 98.4 µM (inactive)
GI50 (SNB-75): 22.1 µM (inactive)
GI50 (SNB-78): > 100 µM (inactive)
GI50 (SR): 45.9 µM (inactive)
GI50 (SW-620): 78 µM (inactive)
GI50 (TK-10): 33.4 µM (inactive)
GI50 (U-251): 44 µM (inactive)
GI50 (UACC-257): 43.5 µM (inactive)
GI50 (UACC-62): 76 µM (inactive)
GI50 (UO-31): 40.3 µM (inactive)
